Results taken from US20120135997A1, “PHARMACEUTICAL COMPOSITION COMPRISING A LACTAM OR BENZENESULFONAMIDE COMPOUND” (Shionogi & Co., Ltd., priority 2009, published 2012).

Tests used:
[1] = target: CYP3A4 (Homo sapiens, UniProt P08684); experiment: CYP3A4 fluorescent MBI test; assay type: in vitro ADME; set-up: host or cells: E. coli; details: E. coli-expressing CYP3A4, substrate 7-BFC, pre-reaction 0 or 30 minutes
Experimental: The CYP3A4 fluorescent MBI test is a test to examine enhancement of CYP3A4 inhibition by metabolic reaction of the compound. Here, E. coli-expressing CYP3A4 was used as an enzyme, and a reaction wherein 7-benzyloxy trifluoromethylcumarin (BFC) was debenzylated by the CYP3A4 enzyme into a fluorescent metabolite 7-hydroxytrifluoromethylcumarin (HFC) was employed as an indicator reaction.
The reaction conditions are as follows.
Substrate: […] 7-BFC; Pre-reaction time: 0 or 30 minutes; Reaction time: 15 minutes; Reaction temperature: 25° C. […]
The enzyme and a test compound solution are added to a K-Pi buffer (pH 7.4) in the aforementioned amounts for the pre-reaction so that a pre-reaction solution is prepared, and this solution is put into a 96-well plate. […] With respect to each of the plates on which the indicator reaction is performed, the fluorescence value of the metabolite 7-HFC is measured with a fluorescence plate reader (Ex=420 nm, Em=535 nm).
Control (100%) is prepared by adding only DMSO, a solvent to dissolve the test compound, to the reaction system. The remaining activity (%) at each concentration after adding the test compound solution is calculated, and the IC50 value is calculated from the concentration and inhibition percentage by inverse estimation with the logistic model. […]

[2] = system: Aβ42 production; experiment: Suppressive activity of Aβ42 production in neuroblast expressing human APP695 (ELISA of secreted Aβ42); assay type: cell-based; details: secreted Aβ42, SH-SY5Y-APPwt cells, 24 hours
Experimental: Dose dependent effect of each test compound was evaluated by measurement of secreted Aβ42 and cell viability in SH-SY5Y-APPwt cells. Secreted Aβ42 was quantified by an ELISA assay and cell viability was measured using a cell count reagent.
SH-SY5Y-APPwt cells were generated from human SH-SY5Y neuroblast by transfection of human APP695 DNA as a stable cell-line and cultured in DMEM supplemented with 10% FCS.
SH-SY5Y-APPwt cells were plated at 1.2×10^5 cells/well/150 μl in 96-well plates. A solution of the test compound in DMSO was diluted with DMEM to a concentration 4-fold higher than the final concentration. 50 μl of the diluted solution was sufficiently mixed with the cells and the final DMEM solution was 200 μl/well. The final DMSO concentration was 1%. As a control compound, a γ-secretase inhibitor, DAPT (Calbiochem) was used. 24 hours after, the culture supernatant was collected and appropriately diluted for ELISA quantification of Aβ42. Cells were used for cell viability assay.
Human/Rat β Amyloid(42) ELISA Kit WAKO (WAKO Pure Chemical Industries) was used for ELISA. ELISA was carried out according to the protocols recommended by the manufacturer's instructions. The results were shown as percentage to the Aβ concentration in the medium of control group (% of Control) and then IC50 values of each test compounds were calculated. Cell viability was measured using Cell Count Reagent SF (NACALAI TESQUE) according to the protocols recommended by the manufacturer's instructions. The results were shown as percentage to cell viability of control group (% of Control) and reduction of cell viability was not seen.

[3] = target: T1, hERG channel (IKr) (Homo sapiens, UniProt Q12809); experiment: hERG test (whole-cell patch clamp, IKr); assay type: cell-based; details: HEK293 cells that express hERG, pH 7.4, HEK293 cell expressing hERG, room temperature, concentration not given, read-out: inhibitory percentage relative to the maximum tail current (IKr)
T1 construct: expressed in transfected cells; host or cells: HEK293
T1 sequence (Q12809 whole entry): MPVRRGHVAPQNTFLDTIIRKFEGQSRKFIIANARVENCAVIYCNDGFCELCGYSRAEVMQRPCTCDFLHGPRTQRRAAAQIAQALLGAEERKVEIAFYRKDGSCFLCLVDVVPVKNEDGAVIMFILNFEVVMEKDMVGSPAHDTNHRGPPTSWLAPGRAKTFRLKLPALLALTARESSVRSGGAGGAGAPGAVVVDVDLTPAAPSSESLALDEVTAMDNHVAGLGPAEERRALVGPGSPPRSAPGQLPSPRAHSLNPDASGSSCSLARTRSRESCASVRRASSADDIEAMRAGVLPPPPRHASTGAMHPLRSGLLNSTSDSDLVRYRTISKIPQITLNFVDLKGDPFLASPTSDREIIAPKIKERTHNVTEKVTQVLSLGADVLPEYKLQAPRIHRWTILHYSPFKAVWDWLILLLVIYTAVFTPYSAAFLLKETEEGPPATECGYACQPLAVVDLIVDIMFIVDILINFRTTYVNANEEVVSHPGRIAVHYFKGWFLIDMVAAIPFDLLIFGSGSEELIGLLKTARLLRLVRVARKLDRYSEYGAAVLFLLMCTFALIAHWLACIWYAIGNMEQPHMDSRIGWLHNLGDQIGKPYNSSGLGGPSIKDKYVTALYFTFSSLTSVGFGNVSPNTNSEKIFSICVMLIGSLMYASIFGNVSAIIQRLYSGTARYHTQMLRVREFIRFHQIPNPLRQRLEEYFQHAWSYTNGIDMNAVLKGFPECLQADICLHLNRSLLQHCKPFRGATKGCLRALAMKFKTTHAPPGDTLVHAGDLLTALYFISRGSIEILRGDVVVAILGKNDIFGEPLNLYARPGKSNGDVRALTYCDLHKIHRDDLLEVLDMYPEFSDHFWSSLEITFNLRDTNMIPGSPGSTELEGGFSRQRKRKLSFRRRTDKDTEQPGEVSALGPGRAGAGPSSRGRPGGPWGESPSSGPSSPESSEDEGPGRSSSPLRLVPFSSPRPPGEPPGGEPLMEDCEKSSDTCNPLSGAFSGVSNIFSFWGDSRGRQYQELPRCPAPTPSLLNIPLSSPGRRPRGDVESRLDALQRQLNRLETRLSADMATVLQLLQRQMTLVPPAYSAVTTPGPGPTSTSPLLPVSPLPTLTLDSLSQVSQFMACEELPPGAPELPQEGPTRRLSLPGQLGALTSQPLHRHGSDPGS
Source text: For the purpose of risk assessment for QT prolongation on an electrocardiogram, the action on delayed rectifier K+ current (IKr) which plays an important role on a process of ventricular repolarization is studied using a HEK293 cell with a human ether-a-go-go related gene (hERG) channel expressed therein.
A cell is maintained at a membrane potential of −80 mV, and then +50 mV of a depolarizing stimulus is applied to the cell for 2 seconds and further −50 mV of a repolarizing stimulus is applied thereto for 2 seconds by a whole-cell patch clamp technique with a fully-automatic patch clamp system (PatchXpress 7000A, Axon Instruments Inc.), and the induced IKr is recorded. As the current generated is stabilized, an extracellular fluid with the test compound dissolved therein at a target concentration (NaCl: 137 mmol/L, KCl: 4 mmol/L, CaCl2.2H2O: 1.8 mmol/L, MgCl2.6H2O: 1 mmol/L, glucose: 10 mmol/L, HEPES (4-(2-hydroxyethyl)-1-piperazineethanesulfonic acid): 10 mmol/L, pH=7.4) is applied to the cell for 10 minutes under room temperature conditions. The absolute value of the maximum tail current is determined from the obtained IKr with an analysis software (DataXpress ver. 1, Molecular Devices Corporation) based on a current value at a maintained membrane potential. Further, an inhibitory percentage relative to the maximum tail current before application of the test compound is calculated, and influence of the test compound on IKr is evaluated in comparison with the medium application group (0.1% dimethyl sulfoxide solution).

[4] = Solubility test; assay type: physicochemical; details: kinetic from dmso stock; 1% DMSO, artificial intestinal juice pH 6.8, 16 hours at 25° C.
Experimental: The solubility of each compound is determined under 1% DMSO addition conditions. A 10 mM solution of the compound is prepared with DMSO, and 6 μL of the compound solution is added to 594 μL of an artificial intestinal juice (water and 118 mL of 0.2 mol/L NaOH reagent are added to 250 mL of 0.2 mol/L potassium dihydrogen phosphate reagent to reach 1000 mL) with a pH of 6.8. The mixture is left standing for 16 hours at 25° C., and the mixture is vacuum-filtered. The filtrate is two-fold diluted with methanol/water=1/1, and the compound concentration in the filtrate is measured with HPLC or LC/MS/MS by the absolute calibration method.

[5] = Metabolic stability test; assay type: in vitro ADME; details: human liver microsomes 0.5 mg protein/mL, 1 mmol/L NADPH, 30 minutes at 37° C.
Experimental: The test compound is reacted with commercially available pooled human liver microsomes for a predetermined time period. The residual rate is calculated by comparing the reacted sample and unreacted sample, and thus the degree of metabolism in liver is evaluated. In 0.2 mL of a buffer (50 mmol/L tris-HCl pH 7.4, 150 mmol/L potassium chloride, 10 mmol/L magnesium chloride) containing human liver microsomes 0.5 mg protein/mL, reaction is carried out in the presence of 1 mmol/L NADPH for 0 minute or 30 minutes at 37° C. (oxidative reaction). After the reaction, 50 μL of the reaction solution is added to and mixed with 100 μl of a solution of methanol/acetonitrile=1/1 (v/v), and the mixture is centrifuged for 15 minutes at 3000 rpm. The test compound in the centrifuged supernatant is quantified by LC/MS/MS, and the residual amount of the test compound after the reaction is calculated based on the compound amount at O-minute reaction set as 100%.

[6] = system: γ-secretase; experiment: Inhibition of γ-secretase activity: CTFβ ELISA in SH-SY5Y-APPwt cells; assay type: cell-based, human; details: concentration 1-fold and 10-fold higher than IC50 for Aβ42 inhibition, 24 hours
Experimental: Inhibition of γ-secretase activity of the test compounds were evaluated by assessment of APP processing by γ-secretase, i.e., by measurement of a γ-secretase substrate C-terminal fragment β (CTFβ) in SH-SY5Y-APPwt cells. Cells were treated in test compound concentration 1-fold and 10-fold higher than its IC50 value for Aβ42 inhibition. CTFβ accumulated by inhibition of γ-secretase activity was quantified by an ELISA assay. SH-SY5Y-APPwt cells were generated from human SH-SY5Y neuroblast by transfection of human APP695 DNA as a stable cell-line and cultured in DMEM supplemented with 10% FCS. SHSY5Y-APPwt cells were plated at 1.0×10^6 cells/well/1 ml DMEM in 6-well plates. A solution of the test compound in DMSO was diluted with DMEM to a concentration 2-fold higher than the final concentration. 1 ml of the diluted solution was sufficiently mixed with the cell and the final DMEM solution was 2 mL/well. The final DMSO concentration was 1%. As a control compound, a γ-secretase inhibitor, DAPT (Calbiochem) was used. […] Protein concentrations in the supernatants were measured by Protein assay Kit (Pierce). The supernatants were diluted and used for CTFβ quantification by βCTF ELISA Kit (IBL) The results were shown as percentage to the CTFβ concentration of control group (added only DMSO) (% of Control), and increasing and decreasing CTFβ of the test compound was calculated. […]

Chain of CYP3A4 (P08684 whole entry): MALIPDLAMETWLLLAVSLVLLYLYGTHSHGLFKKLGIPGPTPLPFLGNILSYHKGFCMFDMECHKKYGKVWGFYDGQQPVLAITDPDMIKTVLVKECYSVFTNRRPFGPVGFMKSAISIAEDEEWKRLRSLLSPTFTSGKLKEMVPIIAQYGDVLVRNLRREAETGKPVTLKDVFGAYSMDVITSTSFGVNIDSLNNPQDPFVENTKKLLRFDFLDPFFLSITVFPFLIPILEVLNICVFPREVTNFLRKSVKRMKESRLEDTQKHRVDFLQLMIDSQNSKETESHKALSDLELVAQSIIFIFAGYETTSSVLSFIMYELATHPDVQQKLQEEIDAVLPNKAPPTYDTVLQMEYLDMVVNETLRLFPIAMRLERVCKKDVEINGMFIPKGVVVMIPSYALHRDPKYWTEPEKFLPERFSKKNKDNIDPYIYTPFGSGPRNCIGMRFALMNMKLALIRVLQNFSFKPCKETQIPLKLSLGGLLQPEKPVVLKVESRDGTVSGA

COc1cc(NS(=O)(=O)c2ccc(Cl)c(Cl)c2)ccc1-n1cnc(C)c1 [Compound 1]
CYP3A4 MBI: difference of the IC50 values [1]: (−) (when the difference is 3 μM or lower, it is regarded as (−)) | IC50 [2]: 900 nM

COc1cc(NS(=O)(=O)Cc2cccc(Cl)c2)ccc1-n1cnc(C)c1 [Compound 38]
IC50 [2]: 6600 nM

COc1cc(NS(=O)(=O)c2ccccc2F)ccc1-n1cnc(C)c1 [Compound 69]
inhibition at 10 min [3]: 6.4%

COc1cc(NS(=O)(=O)c2ccccc2[N+](=O)[O-])ccc1-n1cnc(C)c1 [Compound 74]
solubility at 16 h [4]: > 50 µM | inhibition at 10 min [3]: 1.1%

COc1cc(NS(=O)(=O)c2ccccc2-c2csc3ccccc23)ccc1-n1cnc(C)c1 [Compound 111]
CYP3A4 MBI: difference of the IC50 values [1]: (−) (when the difference is 3 μM or lower, it is regarded as (−))

COc1cc(NS(=O)(=O)c2ccc(Cl)nc2)ccc1-n1cnc(C)c1 [Compound 113]
residual amount of the test compound after the reaction [5]: 97.0% | inhibition at 10 min [3]: 8.5%

COc1cc(NS(=O)(=O)c2cccnc2Cl)ccc1-n1cnc(C)c1 [Compound 115]
residual amount of the test compound after the reaction [5]: 97.8%

COc1cc(NS(=O)(=O)c2ccccc2-c2ccncc2)ccc1-n1cnc(C)c1 [Compound 178]
solubility at 16 h [4]: > 50 µM

COc1cc(N2Cc3ccc(-c4ccccc4Cl)cc3C2=O)ccc1-n1cnc(C)c1 [Compound 189]
IC50 [2]: 1600 nM

COc1cc(N2CCC(NC(=O)c3cccc(Cl)c3)C2=O)ccc1-n1cnc(C)c1 (centres unmarked) [Compound 201]
IC50 [2]: 800 nM

COc1cc(N2CCC(NCc3ccc(Cl)cc3)C2=O)ccc1-n1cnc(C)c1 (centres unmarked) [Compound 231]
IC50 [2]: 1800 nM

COc1cc(N2CCC(C(c3ccccc3)c3ccccc3)C2=O)ccc1-n1cnc(C)c1 (centres unmarked) [Compound 259]
IC50 [2]: 700 nM

COc1cc(NC(=O)Cc2ccc(Cl)c(Cl)c2)ccc1-n1cnc(C)c1 [Compound E8]
IC50 [2]: 1100 nM

C[C@H](NC(=O)Cc1cc(F)cc(F)c1)C(=O)N[C@H](C(=O)OC(C)(C)C)c1ccccc1 [DAPT]
change of CTFβ [6]: dose-dependently increased CTFβ
